Assay results reported in US20160002141A1, “SYNTHESIS OF CALEBIN-A AND ITS BIOLOGICALLY ACTIVE ANALOGS” (priority 2014, published 2016).

Question: For COc1cc(/C=C/C(=O)OCC(=O)/C=C/c2ccc(O)cc2)ccc1O [Example 10c, 4-Hydroxycinnamoylmethyl ferulate], which melting point is on record?
Answer: 175.7 to 177.7 °C

Question: For COc1cc(/C=C/C(=O)COC(=O)/C=C/c2ccc(O)cc2)ccc1O [Example 10b, Feruloylmethyl 4-hydroxycinnamate], which melting point is on record?
Answer: 181.4 to 183.4 °C

Question: With O=C(/C=C/c1ccc(O)cc1)COC(=O)/C=C/c1ccc(O)cc1 [Example 10d, 4-Hydroxycinnamoylmethyl 4-hydroxycinnamate] as the compound, how does the melting point read?
Answer: 289 to 291 °C

Question: With COc1cc(/C=C/C(=O)COC(=O)/C=C/c2ccc(O)c(OC)c2)ccc1O [Example 10a, Feruloylmethyl ferulate] as the compound, how does the melting point read?
Answer: 138 to 140 °C
